Experimental data published in patent US12384753B2, “17-beta-hydroxysteroid dehydrogenase type 13 inhibitors and methods of use thereof” (Enanta Pharmaceuticals, Inc., priority 2021, dated 2025).

These compounds were tested against Recombinant human HSD17B13 (Homo sapiens (Human), UniProt Q7Z5P4) (assay: HSD17B13 rapid-fire mass spectrometry assay (RF/MS assay)). Conditions: inhibition of HSD17B13; LTB4 10 μM, NAD+ 0.5 mM, RT 3 h; IC50 ranges A-E.
Assay type: biochemical
In short: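 Sf9-expressed human HSD17B13 (80 nM) with 10 μM LTB4 and 0.5 mM NAD+, incubated with compound (0–100 μM) for 3 h at RT in Tris pH 7.5/BSA/Tween-20. After formic acid quench, LTB4 conversion to 12-oxo-LTB4 measured by RapidFire MS/MS. IC50 from normalised residual activity, duplicates.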

Chain of Recombinant human HSD17B13 (Q7Z5P4 20-300): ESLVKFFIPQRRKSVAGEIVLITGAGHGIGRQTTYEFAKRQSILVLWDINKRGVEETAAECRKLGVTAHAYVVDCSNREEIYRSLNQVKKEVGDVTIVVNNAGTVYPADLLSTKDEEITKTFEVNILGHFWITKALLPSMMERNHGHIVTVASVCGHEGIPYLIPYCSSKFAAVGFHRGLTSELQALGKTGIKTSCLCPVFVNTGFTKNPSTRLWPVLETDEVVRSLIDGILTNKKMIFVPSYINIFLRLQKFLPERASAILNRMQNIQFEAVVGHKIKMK

| Compound | IC50 [nM] |
| --- | --- |
| CCC[C@H]1CC[C@H]([C@H]2CC[C@@H](c3nc(S(=O)(=O)Nc4cc(F)c(C(=O)O)cc4OC)cs3)CC2)CC1 [Example 733] | 100 to 500 |
| COc1cc(C(=O)O)ccc1NS(=O)(=O)c1csc(N2CCC(Cc3ccccc3)CC2)n1 [Example 260] | 1000 to 100000 |
| O=C(O)c1ccc(NS(=O)(=O)c2ccc3ccccc3c2)cc1 [Example 4] | 1000 to 100000 |
| COc1cc(C(=O)O)c(F)cc1NS(=O)(=O)c1csc(-c2ccc([C@H]3CC[C@@H](C(C)C)CC3)c(F)c2F)n1 [Example 772] | < 100 |
| O=C(O)c1ccc(S(=O)(=O)Nc2ccc(-c3nccs3)cc2)cc1 [Example 51] | 1000 to 100000 |
| COc1cc(C(=O)O)c(F)cc1NS(=O)(=O)c1csc(-c2ccc(C3=CCC(C)(C)CC3)cc2C(C)C)n1 [Example 557] | 100 to 500 |
| COc1ccc(C#Cc2nc(S(=O)(=O)Nc3cc(F)c(C(=O)O)cc3OC)cs2)cc1 [Example 221] | < 100 |
| COc1cc(C(=O)O)c(F)cc1NS(=O)(=O)c1csc(-c2ccc(C3=CCC(C)(C)CC3)cc2C(F)F)n1 [Example 590] | < 100 |
| COc1ccc(NS(=O)(=O)c2cnc(-c3ccc(F)cc3)s2)cc1 [Example 42] | 1000 to 100000 |
| CCC[C@H]1CC[C@H](c2ccc(-c3nc(S(=O)(=O)Nc4ccc(C(=O)O)cc4OC)cs3)cc2)CC1 [Example 350] | < 100 |
| COc1cc(C(=O)O)c(F)cc1NS(=O)(=O)c1csc(-c2ccc(C3=CCC(C)(C)CC3)cc2C2CC2)n1 [Example 544] | 100 to 500 |
| COc1cc(C(=O)O)ccc1NS(=O)(=O)c1csc(-c2ccc(C(=O)O)cc2)n1 [Example 117] | 1000 to 100000 |
| COc1cc(C(=O)O)ccc1NS(=O)(=O)c1ccc(-c2cccc(C)c2)s1 [Example 211] | < 100 |
| Cc1cc(C(=O)O)ccc1NS(=O)(=O)c1cnc(-c2ccc(F)cc2)s1 [Example 20] | 1000 to 100000 |
| COc1cc(C(=O)O)c(F)cc1NS(=O)(=O)c1csc(-c2ccc(-c3cc4ccccc4o3)cc2)n1 [Example 646] | < 100 |
| CCOc1c(F)c(-c2nc(S(=O)(=O)Nc3cc(F)c(C(=O)O)cc3OC)cs2)ccc1[C@H]1CC[C@@H](C(F)(F)F)CC1 [Example 814] | < 100 |
| COc1cc(C(=O)O)c(F)cc1NS(=O)(=O)c1coc(-c2ccc(C3CCC4(CC3)OCCO4)cc2)n1 [Example 618] | < 100 |
| CCCCC[C@H]1CC[C@H](c2ccc(-c3ncc(S(=O)(=O)Nc4cc(F)c(C(=O)O)cc4OC)s3)cc2)CC1 [Example 628] | 100 to 500 |
| COc1cc(C(=O)O)c(F)cc1NS(=O)(=O)c1csc(-c2ccc([C@H]3CC[C@H](C(C)C)CC3)c(C)c2F)n1 [Example 808] | < 100 |
| COc1cc(C(=O)O)c(F)cc1NS(=O)(=O)c1cnn(-c2ccc([C@H]3CC[C@H](C(F)(F)F)CC3)cc2)c1 [Example 686, 2-fluoro-5-methoxy-4-((1-(4-((1r,4r)-4-(trifluoromethyl)cyclohexyl)phenyl)-1H-pyrazole)-4-sulfonamido)benzoic acid] | 100 to 500 |
| O=C(O)C1CCN(S(=O)(=O)c2cnc(-c3ccc(F)cc3)s2)CC1 [Example 64] | 1000 to 100000 |
| COc1cc(C(=O)O)c(F)cc1NS(=O)(=O)c1csc(-c2ccc(-c3ccc(C45CC6C[C@H](C4)C[C@H](C6)C5)cc3)c(F)c2F)n1 [Example 739] | 100 to 500 |
| COc1cc(C(=O)O)ccc1NS(=O)(=O)Nc1ccc(C(=O)O)cc1OC [Example 327] | 1000 to 100000 |
| COc1cc(C(=O)O)ccc1NS(=O)(=O)c1ccc(-c2ccccc2O)s1 [Example 192] | 1000 to 100000 |
| O=C(O)c1cc2c(cc1F)CCN(S(=O)(=O)c1ccc(F)cc1)C2 [Example 6, 6-fluoro-2-((4-fluorophenyl)sulfonyl)-1,2,3,4-tetrahydroisoquinoline-7-carboxylic acid] | 1000 to 100000 |
| COc1cc(C(=O)O)ccc1NS(=O)(=O)c1csc(C#Cc2ccc(C(C)(C)C)cc2)n1 [Example 188] | < 100 |
| COc1cc(C(=O)O)ccc1NS(=O)(=O)c1ccc(-c2ccc(-c3ccc(OC(F)(F)F)cc3)cc2)s1 [Example 219] | 100 to 500 |
